Measured values published in patent US20020010182A1, “Piperazine derivatives as tachykinin antagonists” (FUJISAWA PHARMACEUTICAL CO., LTD., priority 1995, published 2002).
Where a name gives a salt, the structure may show the parent alone.

Target: T1, h-NK1 receptors (Homo sapiens, UniProt P25103)
T1 construct: expressed in transfected cells; host or cells: CHO cells (permanent expression), crude cell membranes
Assay: Evaluation of NK1 antagonist transport efficiency to the central nervous system using a h-NK1 receptor binding assay
Conditions: 5 min, brain extract of male SD rats 5 min after i.v. injection of test compound, CHO cell membranes expressing h-NK1, read-out: inhibition rate of 125I-BH-Substance P binding to h-NK1 receptors
Description: A. Evaluation of NK1 Antagonist Transport Efficiency to the Cental Nervous System Using a h-NK1 Receptor Binding Assay
(1) Administration of Test Compound and Extraction of the Compound From Brain
Male SD rats were given an i.v. injection of a solution containing a test compound (1 mg/kg). 5 Min later the animals were anesthetized by ether, bled and perfused through the aorta ascendens with 20 ml of saline. The brain was rapidly removed, weighed and homogenized in 4 vol. ice-cold distilled water by using Polytoron (KINEMATICA). To extract the test compound, 500 μl of the homogenate, 100 μl of methanol, 500 μl of 0.1 N NaOH and 4 ml of ethyl acetate were mixed by shaking for 10 min at room temperature. The organic phase (2.5 ml) was recovered by centrifugation at 3,000 rpm for 10 min, dried and dissolved in dimethyl sulfoxide.
(2) h-NK1 Receptor Binding Assay
(a) Crude CHO Cell Membrane Preparation
CHO cells permanently expressing h-NK1 receptors were harvested and homogenized with a Dounce homogenizer at 4° C. in a buffer (0.25 M sucrose, 25 mM Tris-HCl (pH 7.4), 10 mM MgCl2, 1 mM EDTA, 5 μg/ml p-APMSF). The homogenate was centrifuged (500×g, 10 min), and the pellet was resuspended in the same buffer, homogenized, and centrifuged. The two supernatants were combined and centrifuged (100,000×g, 1 hour). The crude cell membranes thus isolated were resuspended in a buffer (25 MM Tris-HCl (pH 7.4), 10 mM MgCl2, 1 mM EDTA, 5 μg/ml p-APMSF) and stored at −80° C. until use.
(b) ^125I-BH-Substance P Binding to the Prepared Membrane
Cell membranes (6 μg/ml) were incubated with ^125I-BH-Substance P (0.1 nM) with or without the extracted compounds in 0.25 ml of a medium (50 mM Tris-HCl (pH 7.4), 5 mM MnCl2, 20 μg/ml chymrostatin, 40 μg/ml bacitracin, 4 μg/ml leupeptin, 5 μg/ml p-APMSF, 200 μg/ml BSA) at 22° C. for 90 min. At the end of the incubation period, the contents were quickly filtered through a Blue Mat 11740 filter (pretreated with 0.1% polyethylenimine for 3 hours prior to use) by using SKATRON Cell Harvester. The filter was then washed with a washing buffer (50 mM Tris-HCl (pH 7.4), 5 mM MnCl2) . The radioactivity was counted by using an auto gamma counter (Packard RIASTAR 5420A). All data presented are specific binding defined as that displaceable by 3 μM unlabeled Substance P.

T1 sequence (P25103 whole entry): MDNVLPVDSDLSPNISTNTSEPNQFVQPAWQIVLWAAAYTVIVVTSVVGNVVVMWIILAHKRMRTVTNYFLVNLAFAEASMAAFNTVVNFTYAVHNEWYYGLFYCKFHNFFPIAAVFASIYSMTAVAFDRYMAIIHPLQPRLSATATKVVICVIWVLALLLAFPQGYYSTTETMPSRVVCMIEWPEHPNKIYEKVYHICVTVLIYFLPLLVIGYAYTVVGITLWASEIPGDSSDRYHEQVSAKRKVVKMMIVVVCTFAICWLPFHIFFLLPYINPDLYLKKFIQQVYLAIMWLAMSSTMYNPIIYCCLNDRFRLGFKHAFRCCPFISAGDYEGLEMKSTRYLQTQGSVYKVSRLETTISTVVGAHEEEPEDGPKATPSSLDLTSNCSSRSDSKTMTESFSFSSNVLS

Inhibition at 1 mg/kg, > 80%:
O=C(c1cc(C(F)(F)F)cc(C(F)(F)F)c1)N1CCN(CCCNN2CCOCC2)C[C@H]1Cc1ccc2ccccc2c1 [82-(9), (2R)-1-[3,5-Bis(trifluoromethyl)benzoyl]-2-(2-naphthylmethyl)-4-(N-morpholino-3-aminopropyl) piperazine dihydrochloride]
O=C(c1cc(C(F)(F)F)cc(C(F)(F)F)c1)N1CCN(C/C=C/CNCc2cccnc2)C[C@H]1Cc1ccc2ccccc2c1 [82-(10), (2R)-1-[3,5-Bis(trifluoromethyl)benzoyl]-2-(2-naphthylmethyl)-4-[(E)-N-(3-pyridylmethyl)-4-amino-2-butenyl]piperazine trihydrochloride]
O=C(c1cc(C(F)(F)F)cc(C(F)(F)F)c1)N1CCN(CCCNCc2cccnc2)C[C@H]1Cc1ccc2ccccc2c1 [82-(12), (2R)-1-[3,5-Bis(trifluoromethyl)benzoyl]-2-(2-naphthylmethyl)-4-[N-(3-pyridylmethyl)-3-aminopropyl]piperazine trihydrochloride]
CC(=O)c1ccc(C(=O)N2CCN(C(=O)c3cc(C(F)(F)F)cc(C(F)(F)F)c3)[C@H](Cc3ccc(C)c(C)c3)C2)cc1 [Example 11, (2R)-4-(4-acetylbenzoyl)-1-[3,5-bis (trifluoromethyl)benzoyl]-2-(3,4-dimethylbenzyl)piperazine]
O=C(c1cc(C(F)(F)F)cc(C(F)(F)F)c1)N1CCN(CCCN2CCc3sccc3C2)C[C@H]1Cc1c[nH]c2ccccc12 [Example 26, (2R)-1-[3,5-Bis(trifluoromethyl)benzoyl]-2-(1H-indol-3-ylmethyl)-4-[3-(4,5,6,7-tetrahydrothieno[3,2-c]pyridin-5-yl)propyl]piperazine]
O=C(c1cc(C(F)(F)F)cc(C(F)(F)F)c1)N1CCN(CC#CCN2CCOCC2)C[C@H]1Cc1ccc2ccccc2c1 [Example 35, (2R)-1-[3,5-bis(trifluoromethyl)benzoyl]-4-(4-morpholino-2-butynyl)-2-(2-naphthylmethyl) piperazine dihydrochloride]
O=C(c1cc(C(F)(F)F)cc(C(F)(F)F)c1)N1CCN(CC#CCN2CCOCC2)C[C@H]1Cc1ccc(Cl)c(Cl)c1 [Example 36, (2R)-1-[3,5-bis(trifluoromethyl)benzoyl]-2-(3,4-dichlorobenzyl)-4-(4-morpholino-2-butynyl) piperazine]
O=C(c1cc(C(F)(F)F)cc(C(F)(F)F)c1)N1CCN(CCN2CCSCC2)C[C@H]1Cc1ccc2ccccc2c1 [Example 44-(2), (2R)-1-[3,5-Bis(trifluoromethyl)benzoyl]-2-(2-naphthylmethyl)-4-(2-thiomorpholinoethyl) piperazine dihydrochloride]
O=C(c1cc(C(F)(F)F)cc(C(F)(F)F)c1)N1CCN(CCCN2CCSCC2)C[C@H]1Cc1ccc(Cl)c(Cl)c1 [Example 44-(4), (2R)-1-[3,5-Bis(trifluoromethyl)benzoyl]-2-(3,4-dichlorobenzyl) -4-(3-thiomorpholinopropyl) piperazine dihydrochloride]
O=C(c1cc(C(F)(F)F)cc(C(F)(F)F)c1)N1CCN(CCCN2CCOCC2)C[C@H]1Cc1ccc(Cl)c(Cl)c1 [Example 44-(5), (2R)-1-[3,5-Bis(trifluoromethyl)benzoyl]-2-(3,4-dichlorobenzyl)-4-(3-morpholinopropyl) piperazine dihydrochloride]
O=C(c1cc(C(F)(F)F)cc(C(F)(F)F)c1)N1CCN(CCCN2CCSC2)C[C@H]1Cc1c[nH]c2ccccc12 [Example 44-(7), (2R)-4-[3-(Thiazolidin-3-yl)propyl]-1-[3,5-bis (trifluoromethyl)benzoyl]-2-(1H-indol-3-ylmethyl) piperazine dihydrochloride]
